Results taken from patent US6677450B2, “Topoisomerase inhibitors” (Bristol-Myers Squibb Company, priority 2000, dated 2004).
Like-named read-outs stand apart in the source and are kept apart here.

How the values were obtained:
murine P388 cell line = assay: In vitro cell-based cytotoxicity: proliferation inhibition, XTT tetrazolium assay; settings: P388 cells, 72 h at 37° C., XTT absorbance at 450 nm, read-out: IC50 (drug concentration required to inhibit cell proliferation to 50% of untreated control cells)
Protocol: In Vitro Cell-Based Cytotoxicity Activity
The proliferation inhibition activity against murine P388 cell line was measured as follows. Evaluation of a soluble tetrazolium/formazan assay for cell growth and drug sensitivity in culture, using human and other tumor cell lines, was done according to the procedure described in Cancer Res. 1988, 48, 4827-4833. Cells were plated at 4000 cells/well in 96 well microtiter plates and 24 h later drugs were added and serially diluted. The cells were incubated at 37° C. for 72 h, at which time a tetrazolium dye, XTT, containing phenazine methosulfate was added. A dehydrogenase enzyme in live cells reduced the XTT to a form that absorbs light at 450 nm, which could be quantitated spectrophotometrically. The greater the absorbance the greater the number of live cells. The results are expressed as an IC50, which is the drug concentration required to inhibit cell proliferation (i.e., absorbance at 450 nm) to 50% of that of untreated control cells.

[1] = target: T1, purified human topoisomerase I (Homo sapiens, UniProt P11387); assay: Topoisomerase I activity (in vitro): compound-induced, topoisomerase I-mediated single strand breaks in PM2 DNA; type: biochemical; settings: 30 minutes at 37° C., agarose gel densitometry, read-out: EC50 (median effective concentration for inducing topoisomerase I-mediated single strand breaks in DNA)
T1 construct: purchased Topogen
T1 sequence (P11387 1-765): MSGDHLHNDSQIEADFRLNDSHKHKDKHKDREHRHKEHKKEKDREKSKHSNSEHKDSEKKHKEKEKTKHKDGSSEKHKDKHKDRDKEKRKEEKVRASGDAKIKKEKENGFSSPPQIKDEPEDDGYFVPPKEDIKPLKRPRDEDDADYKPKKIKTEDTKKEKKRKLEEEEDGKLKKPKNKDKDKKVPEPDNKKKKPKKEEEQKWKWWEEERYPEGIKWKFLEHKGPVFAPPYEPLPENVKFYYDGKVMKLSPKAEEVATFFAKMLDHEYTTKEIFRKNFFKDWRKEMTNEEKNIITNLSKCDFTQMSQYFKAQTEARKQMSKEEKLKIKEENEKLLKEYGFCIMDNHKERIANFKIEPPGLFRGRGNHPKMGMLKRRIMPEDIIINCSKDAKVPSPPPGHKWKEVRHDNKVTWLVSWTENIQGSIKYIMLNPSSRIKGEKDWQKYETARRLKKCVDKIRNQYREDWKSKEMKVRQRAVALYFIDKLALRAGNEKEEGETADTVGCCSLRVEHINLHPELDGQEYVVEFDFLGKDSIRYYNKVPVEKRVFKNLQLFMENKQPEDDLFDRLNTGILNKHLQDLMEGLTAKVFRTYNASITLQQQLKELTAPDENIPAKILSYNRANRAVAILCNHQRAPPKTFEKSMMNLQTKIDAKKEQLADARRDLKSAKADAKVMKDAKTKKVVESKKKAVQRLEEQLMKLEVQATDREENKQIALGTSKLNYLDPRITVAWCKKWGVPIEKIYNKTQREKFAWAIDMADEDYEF
Protocol: Topoisomerase I Activity (In Vitro)
Topoisomerase I activity was measured as described below: The procedure for assaying compound-induced, topoisomerase I-mediated single strand breaks in DNA was essentially that described by Hsiang, et al., (J. Biol Chem. 1985, 260, 14873-14878). Samples dissolved in 100% DMSO as either 10 μM or 10 mg/ml solutions, unless otherwise stated, were diluted in Tris-EDTA buffer. Marine bacteriophage PM2 DNA (Boehringer Mannheim) was also diluted in Tris-EDTA buffer to a concentration of 0.02 μg/μl. Different dilutions of the compound being evaluated were mixed with diluted DNA and this mixture was added to 1000 unit (one unit of enzyme activity is defined as the amount capable of relaxing 100 ng of supercoiled DNA in approximately 30 minutes at 37° C.) aliquots of purified human topoisomerase I (Topogen) in 2× reaction buffer to start the reaction. The compound-DNA-enzyme mixture was incubated for 30 minutes at 37° C. before stopping the reaction with warm stop buffer containing sodium dodecyl sulfate and proteinase K (Sigma). These mixtures were allowed to incubate at 37° C. for another 10 minutes, at which time the mixtures were removed from the waterbath and extracted with a 24:1 mixture of chloroform/isoamyl alcohol. Following centrifugation, aliquots of the aqueous phases were placed in wells of a 0.9% agarose (SeaKem) gel in Tris-borate buffer containing 0.5 μg/ml of ethidium bromide and subjected to electrophoresis for 15 hours to separate the different topological isomers and nicked and broken DNAs. After destaining the gel in water, the ethidium bromide stained DNA reaction products were visualized by exposing the gel to UV irradiation. Negatives of the photographs of the irradiated gels were scanned with a densitometer and areas under the peaks were calculated in order to obtain percent single strand DNA break formation for each sample. A median effective concentration (EC50) was obtained for each compound by interpolation between points of the resulting dose-effect curve which defines the potency of the compound for its effect in inducing topoisomerase I-mediated single strand breaks in DNA.
The topoisomerase I activity for certain compounds of the present invention is shown below in Table I.

EC50 [1] [nM] | melting point | Compound | IC50 (murine P388 cell line) [nM] | IC50 (murine P388 cell line; Mus musculus) [nM]
> 100000 | – | O=C1NC(=O)c2c1c1c3cc(F)c(F)cc3n3c1c1c2c2cc(F)c(F)cc2n1C1OC(C3)C(O)C(F)C1O [Example 6, 2,3,9,10-Tetrafluoro-12,13-[1,6-(3-deoxy-3-fluoro-β-D-glucopyranosyl)]-6,7,12,13-tetrahydro(5H)indolo[2,3-a]pyrrolo[3,4-c]carbazole-5,7-dione] | – | 7700
620 | – | O=C1NC(=O)c2c1c1c3cc(F)c(F)cc3n3c1c1c2c2cc(F)c(F)cc2n1C1OC(C3)C(F)C(O)C1O [Example 8, 2,3,9,10-Tetrafluoro-12,13-[1,6-(4-deoxy-4-fluoro-β-D-glucopyranosyl)]-6,7,12,13-tetrahydro(5H)indolo[2,3-a]pyrrolo[3,4-c]carbazole-5,7-dione] | – | 26
450 | > 300 °C | O=C1NC(=O)c2c1c1c3ccc(F)cc3n3c1c1c2c2ccc(F)cc2n1C1OC(C3)C(O)C(O)C1O [Example 10, 2,10-Difluoro-12,13-[1,6-β-D-glucopyranosyl]-6,7,12,13-tetrahydro(5H)indolo-[2,3-a]pyrrolo[3,4-c]carbazole-5,7-dione] | – | 130
3300 | 315 °C (dec.) | O=C1NC(=O)c2c1c1c3ccc(F)cc3n3c1c1c2c2ccc(F)cc2n1C1OC(C3)C(F)C(O)C1O [Example 11, 2,10-Difluoro-12,13-[1,6-(4-deoxy-4-fluoro-β-D-glucopyranosyl)]-6,7,12,13-tetrahydro(5H)indolo[2,3-a]pyrrolo[3,4-c]carbazole-5,7-dione] | – | 21
28 | – | O=C1NC(=O)c2c1c1c3cc(F)ccc3n3c1c1c2c2cc(F)ccc2n1C1OC(C3)C(F)C(O)C1O [Example 26, 3,9-Difluoro-12,13-[1,6-(4-deoxy-4-fluoro-β-D-glucopyranosyl)]-6,7,12,13-tetrahydro(5H)indolo[2,3-a]pyrrolo[3,4-c]carbazole-5,7-dione] | – | 3
36 | – | O=C1NC(=O)c2c1c1c3cc(F)ccc3n3c1c1c2c2cc(F)ccc2n1C1OC(C3)C(O)C(O)C1O (centres unmarked) [Example 27] | – | 51.1

Continued, compound first:

Compound | EC50 [1] [nM] | melting point | IC50 (murine P388 cell line) [nM] | IC50 (murine P388 cell line; Mus musculus) [nM]
2,3,9,10-Tetrafluoro-12,13-[1,5-(6-deoxy-β-D-glucopyranosyl)]-6,7,12,13-tetrahydro(5H)indolo[2,3-a]pyrrolo[3,4-c]carbazole-5-one and 2,3,9,10-Tetrafluoro-12,13-[1,5-(6-deoxy-β-D-glucopyranosyl)]-6,7,12,13-tetrahydro(5H)-indolo[2,3-a]pyrrolo[3,4-c]carbazole-7-one [Example 23] | 2100 | – | 240 | –
O=C1NC(=O)c2c1c1c3cc(F)c(F)cc3n3c1c1c2c2cc(F)c(F)cc2n1C1OC(C3)C(O)C(O)C1O [Example 3, 2,3,9,10-Tetrafluoro-12,13-(1,6-β-D-glucopyranosyl)-6,7,12,13-tetrahydro(5H)indolo[2,3-a]pyrrolo[3,4-c]carbazole-5,7-dione] | 350 | – | – | 50
O=C1NC(=O)c2c1c1c3cc(F)c(F)cc3n3c1c1c2c2cc(F)c(F)cc2n1C1OC(CC(O)C1O)C3 [Example 4, 2,3,9,10-Tetrafluoro-12,13-[1,6-(4-deoxy-β-D-glucopyranosyl)]-6,7,12,13-tetrahydro(5H)indolo[2,3-a]pyrrolo[3,4-c]carbazole-5,7-dione] | 5600 | – | – | 70
O=C1NC(=O)c2c1c1c3cc(F)c(F)cc3n3c1c1c2c2cc(F)c(F)cc2n1C1OC(C3)C(O)CC1O [Example 5, 2,3,9,10-Tetrafluoro-12,13-[1,6-(3-deoxy-β-D-glucopyranosyl)]-6,7,12,13-tetrahydro(5H)indolo[2,3-a]pyrrolo[3,4-c]carbazole-5,7-dione] | 680 | – | – | 23
COC1C2Cn3c4c(Cl)cccc4c4c5c(c6c7cccc(Cl)c7n(c6c43)C(O2)C(O)C1O)C(=O)NC5=O [Example 7, 1,11-Dichloro-12,13-[1,6-(4-O-methyl-β-D-glucopyranosyl)]-6,7,12,13-tetrahydro(5H)indolo[2,3-a]pyrrolo[3,4-c]carbazole-5,7-dione] | > 100000 | – | – | 460
O=C1NC(=O)c2c1c1c3cc(F)c(F)cc3n3c1c1c2c2cc(F)c(F)cc2n1C1OC(C3)C(F)(F)C(O)C1O [Example 9, 2,3,9,10-Tetrafluoro-12,13-[1,6-(4-deoxy-4,4-difluoro-β-D-glucopyranosyl)]-6,7,12,13-tetrahydro(5H)indolo[2,3-a]pyrrolo[3,4-c]carbazole-5,7-dione] | > 100000 | – | – | 21
O=C1NC(=O)c2c1c1c3cc(F)c(F)cc3n3c1c1c2c2cc(F)c(F)cc2n1[C@@H]1OC(CO)[C@H]3C(O)C1O (stereo partly drawn) [Example 13, 2,3,9,10-Tetrafluoro-12,13-(1,4-β-D-galactopyranosyl)-6,7,12,13-tetrahydro(5H)indolo[2,3-a]pyrrolo[3,4-c]carbazole-5,7-dione] | 8200 | – | – | 2800
O=C1NC(=O)c2c1c1c3cc(F)c(F)cc3n3c1c1c2c2cc(F)c(F)cc2n1[C@@H]1OC(CF)[C@H]3C(O)C1O (stereo partly drawn) [Example 16, 2,3,9,10-Tetrafluoro-12,13-[1,4-(6-deoxy-6-fluoro-β-D-galactopyranosyl)]-6,7,12,13-tetrahydro(5H)indolo[2,3-a]pyrrolo[3,4-c]carbazole-5,7-dione] | 2900 | – | – | 3300
C[C@]12O[C@H]([C@H](O)[C@@H](O)[C@@H]1O)n1c3cc(F)c(F)cc3c3c4c(c5c6cc(F)c(F)cc6n2c5c31)C(=O)NC4=O [Example 21] | 290 | – | – | 140
O=C1NC(=O)c2c1c1c3cc(F)c(F)cc3n3c1c1c2c2cc(F)c(F)cc2n1[C@@]1(CO)O[C@@H]3[C@H](O)[C@@H](O)[C@@H]1O [Example 22, 2,3,9,10-Tetrafluoro-12,13-(1,5-β-D-glucopyranosyl)-6,7,12,13-tetrahydro(5H)indolo[2,3-a]pyrrolo[3,4-c]carbazole-5,7-dione] | 320 | – | – | 86
O=C1NC(=O)c2c1c1c3cc(F)ccc3n3c1c1c2c2cc(F)ccc2n1[C@@H]1O[C@H](CO)[C@H](O)[C@H](O)[C@@H]13 [Example 25, 3,9-Difluoro-12,13-[1,2-β-D-galactopyranosyl]-6,7,12,13-tetrahydro(5H)-indolo-[2,3-a]pyrrolo[3,4-c]carbazole-5,7-dione] | 110 | – | – | 14.2
O=C1NC(=O)c2c1c1c3cc(F)ccc3n3c1c1c2c2cc(F)ccc2n1[C@@H]1O[C@H](CO)[C@@H](O)[C@H](O)[C@@H]13 [Example 28, 3,9-Difluoro-12,13-[1,2-β-D-glucopyranosyl]-6,7,12,13-tetrahydro(5H)-indolo-[2,3-a]pyrrolo[3,4-c]carbazole-5,7-dione] | 120 | – | – | 347
